Laboratory results from PubChem BioAssay AID2060601 (Molecular Pharmacology Branch, DTP, NCI, 2025).
“And” between values parts separate entries of the source, which are not always exact repeats. Equal values may be shown once.

Test system: 874868-142-R-J2-PDC complex spheroids, growth % test/control
Test: Anticancer human tumor 874868-142-R-J2-PDC patient-derived head and neck squamous carcinoma cell line growth inhibition [CLK]
Settings: for viability, T/C: stronger effect = lower value
Outline: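 Multi-cell-type spheroids combined patient-derived tumor cells with HUVEC endothelial cells and human mesenchymal stem cells. Paired agents were dosed in half-log steps down from about clinical Cmax, or from 10 microM where Cmax was unknown.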

[1] = curve of first compound, second compound 0.0316 µM
[2] = curve of first compound, second compound 0.1 µM
[3] = curve of first compound, second compound 0.316 µM
[4] = curve of first compound, second compound 1 µM
[5] = curve of first compound, second compound 3.16 µM
[6] = curve of first compound, second compound 10 µM
[7] = second compound 0.0316 µM, first compound 0.00316 µM
[8] = second compound 0.0316 µM, first compound 0.01 µM
[9] = second compound 0.0316 µM, first compound 0.0316 µM
[10] = second compound 0.0316 µM, first compound 0.1 µM
[11] = second compound 0.0316 µM, first compound 0.316 µM
[12] = second compound 0.0316 µM, first compound 1 µM
[13] = second compound 0.1 µM, first compound 0.00316 µM
[14] = second compound 0.1 µM, first compound 0.01 µM
[15] = second compound 0.1 µM, first compound 0.0316 µM
[16] = second compound 0.1 µM, first compound 0.1 µM
[17] = second compound 0.1 µM, first compound 0.316 µM
[18] = second compound 0.1 µM, first compound 1 µM
[19] = second compound 0.316 µM, first compound 0.00316 µM
[20] = second compound 0.316 µM, first compound 0.01 µM
[21] = second compound 0.316 µM, first compound 0.0316 µM
[22] = second compound 0.316 µM, first compound 0.1 µM
[23] = second compound 0.316 µM, first compound 0.316 µM
[24] = second compound 0.316 µM, first compound 1 µM
[25] = second compound 1 µM, first compound 0.00316 µM
[26] = second compound 1 µM, first compound 0.01 µM
[27] = second compound 1 µM, first compound 0.0316 µM
[28] = second compound 1 µM, first compound 0.1 µM
[29] = second compound 1 µM, first compound 0.316 µM
[30] = second compound 1 µM, first compound 1 µM
[31] = second compound 3.16 µM, first compound 0.00316 µM
[32] = second compound 3.16 µM, first compound 0.01 µM
[33] = second compound 3.16 µM, first compound 0.0316 µM
[34] = second compound 3.16 µM, first compound 0.1 µM
[35] = second compound 3.16 µM, first compound 0.316 µM
[36] = second compound 3.16 µM, first compound 1 µM
[37] = second compound 10 µM, first compound 0.00316 µM
[38] = second compound 10 µM, first compound 0.01 µM
[39] = second compound 10 µM, first compound 0.0316 µM
[40] = second compound 10 µM, first compound 0.1 µM
[41] = second compound 10 µM, first compound 0.316 µM
[42] = second compound 10 µM, first compound 1 µM
[43] = second compound 0.0316 µM, first compound 3.16 µM
[44] = second compound 0.0316 µM, first compound 10 µM
[45] = second compound 0.1 µM, first compound 3.16 µM
[46] = second compound 0.1 µM, first compound 10 µM
[47] = second compound 0.316 µM, first compound 3.16 µM
[48] = second compound 0.316 µM, first compound 10 µM
[49] = second compound 1 µM, first compound 3.16 µM
[50] = second compound 1 µM, first compound 10 µM
[51] = second compound 3.16 µM, first compound 3.16 µM
[52] = second compound 3.16 µM, first compound 10 µM
[53] = second compound 10 µM, first compound 3.16 µM
[54] = second compound 10 µM, first compound 10 µM
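Further: spheroids exposed to the compounds for 7 days.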
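Wherever viability, T/C is given: 100% = DMSO vehicle control viability.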

CCN1CCN(Cc2ccc(Nc3ncc(F)c(-c4cc(F)c5nc(C)n(C(C)C)c5c4)n3)nc2)CC1 + CN1CCN(c2cc(C(=O)Nc3cc4cc(-c5cnn(C)c5)ccc4cn3)ccn2)CC1
IC50 [1]: > 1000 nM | IC50 [2]: > 1000 nM | IC50 [3]: < 3.16 nM | IC50 [4]: < 3.16 nM | IC50 [5]: < 3.16 nM | IC50 [6]: < 3.16 nM | viability, T/C [7]: 82.8% | viability, T/C [8]: 65% | viability, T/C [9]: 82.2% | viability, T/C [10]: 89% | viability, T/C [11]: 72% | viability, T/C [12]: 110% | viability, T/C [13]: 85.4% | viability, T/C [14]: 66.9% | viability, T/C [15]: 54.9% | viability, T/C [16]: 66.8% | viability, T/C [17]: 62.5% | viability, T/C [18]: 91% | viability, T/C [19]: 22.7% | viability, T/C [20]: 22.2% | viability, T/C [21]: 25.9% | viability, T/C [22]: 23.1% | viability, T/C [23]: 43.9% | viability, T/C [24]: 49.6% | viability, T/C [25]: 0.58% | viability, T/C [26]: 0.34% | viability, T/C [27]: 0.43% | viability, T/C [28]: 0.43% | viability, T/C [29]: 0.48% | viability, T/C [30]: 0.58% | viability, T/C [31]: 0.3% | viability, T/C [32]: 2.83% | viability, T/C [33]: 0.23% | viability, T/C [34]: 0.83% | viability, T/C [35]: 0.56% | viability, T/C [36]: 1% | viability, T/C [37]: 0.7% | viability, T/C [38]: 2.35% | viability, T/C [39]: 0.16% | viability, T/C [40]: 0.16% | viability, T/C [41]: 0.18% | viability, T/C [42]: 4.41%

CCc1c2c(nc3ccc(O)cc13)-c1cc3c(c(=O)n1C2)COC(=O)[C@]3(O)CC + CN1CCN(c2cc(C(=O)Nc3cc4cc(-c5cnn(C)c5)ccc4cn3)ccn2)CC1
IC50 [1]: < 3.16 nM | IC50 [2]: < 3.16 nM | IC50 [3]: < 3.16 nM | IC50 [4]: < 3.16 nM | IC50 [5]: < 3.16 nM | IC50 [6]: < 3.16 nM | viability, T/C [7]: 40.3% | viability, T/C [8]: 37.1% | viability, T/C [9]: 26.8% | viability, T/C [10]: 16.6% | viability, T/C [11]: 7.13% | viability, T/C [12]: 1.61% | viability, T/C [13]: 31.4% | viability, T/C [14]: 24.2% | viability, T/C [15]: 11.6% | viability, T/C [16]: 8.69% | viability, T/C [17]: 2.29% | viability, T/C [18]: 0.34% | viability, T/C [19]: 12.2% | viability, T/C [20]: 7.89% | viability, T/C [21]: 5.11% | viability, T/C [22]: 1.25% | viability, T/C [23]: 0.46% | viability, T/C [24]: 0.22% | viability, T/C [25]: 0.28% | viability, T/C [26]: 0.16% | viability, T/C [27]: 0.25% | viability, T/C [28]: 0.19% | viability, T/C [29]: 0.39% | viability, T/C [30]: 0.11% | viability, T/C [31]: 0.18% | viability, T/C [32]: 0.16% | viability, T/C [33]: 0.32% | viability, T/C [34]: 0.27% | viability, T/C [35]: 0.19% | viability, T/C [36]: 0.11% | viability, T/C [37]: 0.07% | viability, T/C [38]: 3.98% | viability, T/C [39]: 0.4% | viability, T/C [40]: 0.15% | viability, T/C [41]: 0.19% | viability, T/C [42]: 0.19%

COC1C=CCC(C)C(C)S(=O)(=O)NC(=O)c2ccc3c(c2)N(CC2CCC21)CC1(CCCc2cc(Cl)ccc21)CO3 (stereo not given)
viability, T/C (compound 0.0316 µM): 103% and 104% | viability, T/C (compound 0.1 µM): 72.9% and 83.5% | viability, T/C (compound 0.316 µM): 65.5% and 53.1% | viability, T/C (compound 1 µM): 50.5% and 46.5% | viability, T/C (compound 3.16 µM): 25.1% and 30.6% | viability, T/C (compound 10 µM): 12.7% and 13.8% | IC50 (curve of compound): 756 nM and 631 nM

O=C(c1cc(Cc2n[nH]c(=O)c3ccccc23)ccc1F)N1CCN(C(=O)C2CC2)CC1 + CN1CCN(c2cc(C(=O)Nc3cc4cc(-c5cnn(C)c5)ccc4cn3)ccn2)CC1
IC50 [1]: > 10000 nM | IC50 [2]: > 10000 nM | IC50 [3]: < 31.6 nM | IC50 [4]: < 31.6 nM | IC50 [5]: < 31.6 nM | IC50 [6]: < 31.6 nM | viability, T/C [9]: 86.3% | viability, T/C [10]: 88% | viability, T/C [11]: 89.6% | viability, T/C [12]: 94.7% | viability, T/C [43]: 68.2% | viability, T/C [44]: 83.5% | viability, T/C [15]: 71.1% | viability, T/C [16]: 70.4% | viability, T/C [17]: 69.2% | viability, T/C [18]: 65.6% | viability, T/C [45]: 46.4% | viability, T/C [46]: 60.5% | viability, T/C [21]: 23.5% | viability, T/C [22]: 20.9% | viability, T/C [23]: 17.7% | viability, T/C [24]: 12.1% | viability, T/C [47]: 21.3% | viability, T/C [48]: 15.1% | viability, T/C [27]: 0.42% | viability, T/C [28]: 0.25% | viability, T/C [29]: 0.36% | viability, T/C [30]: 0.19% | viability, T/C [49]: 0.32% | viability, T/C [50]: 0.44% | viability, T/C [33]: 0.18% | viability, T/C [34]: 0.2% | viability, T/C [35]: 0.63% | viability, T/C [36]: 0.28% | viability, T/C [51]: 0.34% | viability, T/C [52]: 2.51% | viability, T/C [39]: 0.11% | viability, T/C [40]: 0.31% | viability, T/C [41]: 3.38% | viability, T/C [42]: 0.18% | viability, T/C [53]: 0.23% | viability, T/C [54]: 0.69%

C#Cc1c(F)ccc2cc(O)cc(-c3ncc4c(N5CC6CCC(C5)N6)nc(OCC56CCCN5CC(F)C6)nc4c3F)c12 (stereo not given) + CN1CCN(c2cc(C(=O)Nc3cc4cc(-c5cnn(C)c5)ccc4cn3)ccn2)CC1
IC50 [1]: 8540 nM | IC50 [2]: 1410 nM | IC50 [3]: < 31.6 nM | IC50 [4]: < 31.6 nM | IC50 [5]: < 31.6 nM | IC50 [6]: < 31.6 nM | viability, T/C [9]: 98.2% | viability, T/C [10]: 85.1% | viability, T/C [11]: 76.3% | viability, T/C [12]: 73% | viability, T/C [43]: 49.8% | viability, T/C [44]: 51.2% | viability, T/C [15]: 69.2% | viability, T/C [16]: 74.1% | viability, T/C [17]: 68.8% | viability, T/C [18]: 51.2% | viability, T/C [45]: 41.5% | viability, T/C [46]: 54.2% | viability, T/C [21]: 21% | viability, T/C [22]: 24% | viability, T/C [23]: 17.3% | viability, T/C [24]: 13% | viability, T/C [47]: 15.5% | viability, T/C [48]: 15.4% | viability, T/C [27]: 0.39% | viability, T/C [28]: 0.42% | viability, T/C [29]: 0.39% | viability, T/C [30]: 0.91% | viability, T/C [49]: 0.5% | viability, T/C [50]: 1.33% | viability, T/C [33]: 0.37% | viability, T/C [34]: 2.5% | viability, T/C [35]: 0.31% | viability, T/C [36]: 0.32% | viability, T/C [51]: 0.26% | viability, T/C [52]: 4.54% | viability, T/C [39]: 0.53% | viability, T/C [40]: 1.9% | viability, T/C [41]: 3.6% | viability, T/C [42]: 0.18% | viability, T/C [53]: 0.9% | viability, T/C [54]: 6.16%
